Data as given in ChEMBL document CHEMBL4725449, “Brain Penetrable Inhibitors of Ceramide Galactosyltransferase for the Treatment of Lysosomal Storage Disorders” (ACS Med Chem Lett, 2020).
pIC50: −log10 of the molar value.

Tests used:
[1] = (§1) In vivo inhibition of GalCer de novo synthesis in PN14 to PN21 days C57BL/6 mouse brain assessed as reduction in [13C] galactose incorporation into GalCer at 30 mg/kg, po bid for 2 days and single dose at day 3 treated 1 hr prior to intraperitoneal injection of [13C] galactose measured after 5 hrs of last dose relative to control; format: functional; conditions: C57BL/6, 72 h, time 3 day
[2] = Cmax in Beagle dog at 3 mg/kg, po; format: ADME, organism-based, Canis lupus familiaris; design: route oral, dose 3 mg/kg; conditions: in vivo
[3] = Cmax in C57BL/6 mouse at 3 mg/kg, po; format: ADME, organism-based; design: route oral, dose 3 mg/kg; conditions: in vivo
[4] = as §1, with “10” for “30”; format: functional; conditions: C57BL/6, 72 h, time 3 day
[5] = Thermodynamic solubility of the compound […] at pH 7.4; format: physicochemical; conditions: read-out: Therm_solubility
[6] = as §1, with “SFT” for “GalCer”, “3” for “30”; format: functional; conditions: C57BL/6, 72 h, time 3 day
[7] = molecular target: T1, UDP-glucuronosyltransferase 2B7 (Homo sapiens, UniProt P16662); assay: Inhibition of UGT2B7 (unknown origin); format: ADME
T1 sequence (P16662 whole entry): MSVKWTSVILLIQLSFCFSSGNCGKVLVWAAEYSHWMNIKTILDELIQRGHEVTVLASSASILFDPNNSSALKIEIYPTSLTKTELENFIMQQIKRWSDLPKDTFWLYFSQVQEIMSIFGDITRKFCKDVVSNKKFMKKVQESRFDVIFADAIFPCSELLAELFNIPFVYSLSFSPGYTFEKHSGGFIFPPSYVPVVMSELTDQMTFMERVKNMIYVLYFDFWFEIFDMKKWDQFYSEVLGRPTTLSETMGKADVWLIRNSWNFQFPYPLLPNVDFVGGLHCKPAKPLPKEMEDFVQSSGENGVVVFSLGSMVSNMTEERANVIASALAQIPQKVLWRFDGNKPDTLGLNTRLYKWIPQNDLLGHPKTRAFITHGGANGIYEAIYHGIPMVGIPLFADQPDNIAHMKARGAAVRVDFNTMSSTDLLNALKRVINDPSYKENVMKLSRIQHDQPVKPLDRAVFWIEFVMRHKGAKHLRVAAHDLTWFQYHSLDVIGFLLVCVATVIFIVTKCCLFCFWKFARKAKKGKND

[8] = Ratio of drug concentration in brain to plasma in C57BL/6 mouse measured at 5 mins; format: ADME, organism-based; conditions: read-out: BPR
[9] = (§2) In vivo inhibition of SFT de novo synthesis in adult C57BL/6 mouse kidney assessed as reduction in [13C] galactose incorporation into SFT at 0.3 mg/kg, po via gavage treated with compound for 1 hr prior to intraperitoneal injection of [13C] galactose measured after 5 hrs of compound administration relative to control; format: functional
[10] = AUC (0 to last) in Sprague-Dawley rat at 3 mg/kg, po; format: ADME, organism-based; design: time 0 - last, route oral, dose 3 mg/kg; conditions: in vivo
[11] = Tmax in C57BL/6 mouse at 3 mg/kg, po; format: ADME, organism-based; conditions: in vivo
[12] = Clearance in Sprague-Dawley rat at 1 mg/kg, iv; format: ADME, organism-based; conditions: in vivo
Mus musculus = assay: (§3) In vivo inhibition of GalCer de novo synthesis in po dosed adult C57BL/6 mouse kidney assessed as reduction in [13C] galactose incorporation into GalCer treated with compound for 1 hr prior to intraperitoneal injection of [13C] galactose measured after 5 hrs of compound administration; format: functional
[13] = as §3; format: functional
[14] = AUC (0 to last) in C57BL/6 mouse at 3 mg/kg, po; format: ADME, organism-based; design: time 0 - last, route oral, dose 3 mg/kg; conditions: in vivo
[15] = as §2, with “GalCer” for “SFT”, “10” for “0.3”; format: functional
[16] = as §2, with “GalCer” for “SFT”; format: functional
[17] = as §2, with “10” for “0.3”; format: functional
[18] = as §1, with “3” for “30”; format: functional; conditions: C57BL/6, 72 h, time 3 day
[19] = Drug uptake in C57BL/6 mouse brain at 3 mg/kg, iv measured at 5 mins; format: ADME, organism-based; conditions: read-out: Drug uptake
[20] = Apparent permeability of the compound at pH 6.5 to 7.4 by PAMPA; format: ADME
[21] = as §2, with “30” for “0.3”; format: functional
[22] = as §2, with “1” for “0.3”; format: functional
[23] = molecular target: T2, UDP-glucuronosyltransferase 1A1 (Homo sapiens, UniProt P22309); assay: Inhibition of UGT1A1 (unknown origin); format: ADME
T2 sequence (P22309 whole entry): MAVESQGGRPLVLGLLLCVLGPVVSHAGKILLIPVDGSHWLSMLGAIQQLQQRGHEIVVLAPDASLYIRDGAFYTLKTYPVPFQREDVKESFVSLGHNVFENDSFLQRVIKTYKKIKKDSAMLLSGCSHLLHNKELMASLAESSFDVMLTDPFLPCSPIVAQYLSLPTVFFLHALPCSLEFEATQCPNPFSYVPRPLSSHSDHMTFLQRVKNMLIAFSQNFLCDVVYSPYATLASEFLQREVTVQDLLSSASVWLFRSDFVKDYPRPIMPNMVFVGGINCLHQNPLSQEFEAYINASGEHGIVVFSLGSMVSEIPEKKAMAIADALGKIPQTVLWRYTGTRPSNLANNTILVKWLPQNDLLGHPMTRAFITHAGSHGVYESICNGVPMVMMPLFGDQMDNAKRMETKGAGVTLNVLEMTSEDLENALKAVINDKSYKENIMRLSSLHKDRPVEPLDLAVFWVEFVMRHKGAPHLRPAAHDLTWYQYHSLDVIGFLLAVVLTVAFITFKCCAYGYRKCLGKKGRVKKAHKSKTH

[24] = as §1, with “SFT” for “GalCer”; format: functional; conditions: C57BL/6, 72 h, time 3 day

Cmax [2]: 693 ng/mL
Cmax [3]: 306 ng/mL
solubility thermodynamic [5]: < 0.5 µM
pIC50 [7]: < 5.00
Kp at 5 min [8]: 0.69
AUC(0-t) [10]: 3060 ng·h/mL
Tmax [11]: 30 min
clearance [12]: 6.52 mL/min/kg
AUC(0-t) [14]: 784 ng·h/mL
concentration at 5 min [19]: 2050 ng/mL
Papp [20]: > 80 ×10⁻⁶ cm/s
pIC50 [23]: < 5.00
Structure (SMILES): CNC(=O)c1csc2c(C(F)(F)F)cc(N3CCC(OC(=O)N[C@@H](C)COC(F)(F)F)CC3)nc12
inhibition in vivo at 30 mg/kg [1]: 94%
inhibition in vivo at 10 mg/kg [4]: 94%
inhibition in vivo at 3 mg/kg [6]: 92%
inhibition in vivo at 0.3 mg/kg [9]: 29%
inhibition (Mus musculus): Dose-dependent effect
ED50 [13]: 1 mg/kg
inhibition in vivo at 10 mg/kg [15]: 85%
inhibition in vivo at 0.3 mg/kg [16]: 19%
inhibition in vivo at 10 mg/kg [17]: 95%
inhibition in vivo at 3 mg/kg [18]: 90%
inhibition in vivo at 30 mg/kg [21]: 99%
inhibition in vivo at 1 mg/kg [22]: 50%
inhibition in vivo at 30 mg/kg [24]: 98%
